The results in this text go back to patent US6395906B1, “Intermediates to pesticidal 1-arylpyrazoles” (Rhone-Poulenc Inc., priority 1995, dated 2002).

Assay type in all cases: in vivo
The test system of test [1] is tobacco budworm (Heliothis virescens). Kind of test: Tobacco budworm (TBW) treated cotton leaf test. Conditions: cotton leaves, 100 ppm; second instar larvae, five days. On the procedure: (§1) For the tick, aphids, souther armyworm, tobacco budworm, house fly, Mexican bean beetle, American cockroach, cat flea, souther corn rootworm, western corn rootworm, black cutworm, and southern root-knot nematode, a solution or suspension was prepared by adding the test compound to a solution of dimethylformamide, acetone, emulsifiers which are alkylaryl polyether alcohols organic sulfonates, and water. The result was a 100 or 500 ppm concentration of the test compound.
Tobacco budworm (TBW): Cotton leaves were wet to runoff with the 100 ppm test compound formulation. As an untreated control, a water-acetone-DMF-emulsifier solution containing no test compound was also applied wet to runoff to cotton leaves. Ten randomly selected second instar tobacco budworm larvae were introduced into plastic containers in which moist dental wicks and the dry treated leaves had been placed. The cups were closed and held for five days. Larvae which were unable to move the length of the body, even upon stimulation by prodding, were considered dead.

The test system of test [2] is cat flea (Ctenocephalides felis). Kind of test: Cat flea (CF) treated filter paper contact test. Conditions: 500 ppm, adult fleas, contact mortality 1 day after infestation. As for the experimental part: as §1
Cat flea (CF), dog tick (DT): Filter papers were treated with an aliquot of the 500 ppm test formulation. As an untreated control, an aliquot of a water-acetone-DMF-emulsifier solution containing no test compound was applied in a similar manner. When dry, 2 treated filters were placed in a vial for the flea and another 2 filters in a vial for the tick. Five adult fleas were added to one vial and 5 adult ticks to the second vial. Contact mortality was assessed 1 day after infestation for the flea and 14 days after infestation for the tick.

Test [3] has as its system American cockroach (Periplaneta americana). Kind of test: American cockroach (ACR) treated food pellet test. To be noted: food pellets with 500 ppm formulation; nymphs, contact and feeding mortality 1 and 5 days after infestation. On the procedure:
as §1
American cockroach (ACR): Cat food or dog food pellets were added to jars containing 1-2 mls of the 500 ppm test formulation. As an untreated control, an aliquot of a water-acetone-DMF-emulsifier solution containing no test compound was applied in a similar manner. After 48 hours, roach nymphs were added to the jar. Contact and feeding mortally was assessed 1 and 5 days after infestation.

The subject of test [4] is black cutworm (Agrotis ipsilon). Kind of test: Black cutworm systemic test (BCW-Sys). Conditions: soil drench 10.0 ppm, corn seedling clipped ten days after treatment; mortality 4 days after infestation. From the text: (§2) For cotton aphid systemic tests and black cutwork—systemic tests, the water-acetone-DMF-emulsifier solution was adjusted for a treatment rate of 10.0 ppm soil concentration.
Black cutworm—systemic test (BCW-Sys): Corn seeds were placed on top of the soil surface in pots containing moist soil. The test compound solution was applied as a drench to the top of the soil and seeds for a treatment rate equivalent to 10.0 ppm soil concentration. As an untreated control, an aliquot of water-acetone-DMF-emulsifier solution containing no test compound was applied in a similar manner. The soil surface and seeds were covered with moist soil. The pots were held in the greenhouse for the duration of the bioassay. Ten days after treatment, the corn seedling was clipped and placed in a plastic cup with 2 late second to early third instar black cutworm larvae. Mortality was assessed visually 4 days after infestation.

In test [5] the test system is greenbug aphid (Schizaphis graminum). In words: Greenbug aphid systemic test (GA-Sys). Conditions: soil drench 10 or 25 ppm, sorghum; aphid control rated one and three days after infestation. The source says:
For the greenbug aphid systemic test, the water-acetone-DMF-emulsifier solution was adjusted for a treatment rate of 10 or 25 ppm soil concentration.
Greenburg aphid—systemic test (GA-Sys): Sorghum seeds were placed on top of the soil surface in pots containing moist soil. The test compound solution was applied as a drench to the top of the soil and seeds for a treatment rate equivalent to 10 or 25 ppm soil concentration. As an untreated control, an aliquot of a water-acetone-DMF-emulsifier solution containing no test compound was applied in a similar manner. The soil surface and seeds were covered with moist soil. The pots were held in the greenhouse for the duration of the bioassay. When the sorghum seeds germinated, greenbug aphids were sprinkled evenly over the sorghum pots to about 50 aphids per pot. The plants were rated for aphid control one and three days after infestation.

Test [6] has as its system western corn rootworm (Diabrotica virgifera virgifera). In words: Western corn rootworm (WCRW) soil test. Conditions: soil concentration 0.15 or 0.5 ppm; neonate larvae, mortality six days after infestation. On the procedure:
as §1
For the western corn rootworm test, the water-acetone-DMF-emulsifier solution was adjusted for a treatment rate of 0.15 or 0.5 ppm.
Western corn rootworm (WCRW): The 500 ppm test formulation was applied to dry sandy loam soil contained in a glass jar for a soil concentration of 0.15 or 0.5 ppm. As an untreated control, an aliquot of a water-acetone-DMF-emulsifier solution containing no test compound was applied in a similar manner. After incubating covered for 24 hours, the soil was mixed and four germinated corn seedlings were added to the jar. Ten neonate western corn rootworm larvae were placed in the jar. Six days after infestation, mortality was assessed by Berlese funnel extraction.

The subject of test [7] is Mexican bean beetle (Epilachna varivestis). Kind of test: Mexican bean beetle (MBB) treated bean leaf test. Conditions: bean leaves, 100 or 500 ppm; second instar larvae, five days. On the procedure: as §1
Southern armyworm (SAW), Mexican bean beetle (MBB): Bean leaves were wet to runoff with the 100 or 500 ppm test compound formulation. As an untreated control, a water-acetone-DMF-emulsifier solution containing no test compound was also applied wet to runoff to bean leaves. Five or six randomly selected second instar southern armyworn larvae or Mexican bean bettle larvae were introduced into each plastic container with the dry treated leaves. The container was closed and held for five days. Larvae which were unable to move the length of the body, even upon stimulation by prodding, were considered dead.

Test [8] has as its system black cutworm (Agrotis ipsilon). Kind of test: Black cutworm (BCW) soil test. To be noted: soil concentration 2.5, 5, 6.75 or 10 ppm; mortality eight days after infestation. On the procedure:
as §1
(§3) For southern corn rootworm and black cutworm tests, the water-acetone-DMF-emulsifier solution was adjusted for a treatment rate of 2.5, 5, 6.75 or 10 ppm.
(§4) Southern corn rootworm (SCRW), Black cutworm (BCW): Corn seeds were placed in a glass jar and covered with dry sandy loam soil. The 500 ppm test formulation was applied for a soil concentration of 2.5, 5, 6.75 or 10 ppm. As an untreated control, an aliquot of a water-acetone-DMF-emulsifier solution containing no test compound was applied in a similar manner. After incubating covered for 24 hours, the soil was mixed and inoculated with approximately 25 southern corn rootworm eggs. Following an additional 48 hours, two late second to early third instar black cutworms were placed in the jar with a portion of insect diet. Eight days after infestation, mortality was assessed visually for cutworm and by Berlese funnel extraction for rootworm.

Test [9] deals with house fly (Musca domestica). In words: House fly (HF) bait test. To be noted: sucrose bait, 100 or 250 ppm; adult flies, mortality after 24 hours. As for the experimental part:
as §1
For house fly tests, the water-acetone-DMF-emulsifier solution was adjusted with a 20% by weight aqueous solution of sucrose to provide a final 100 or 250 ppm concentration of the test compound.
House fly (HF): Four to six day old adult house flies were used. The files were immobilized by anesthetizing with carbon dioxide. A bait cup was prepared which contained the 100 or 250 ppm test compound formulation/sucrose solution and one or two absorbent cotton pad(s). As an untreated control, a water-acetone-DMF-emulsifier-sucrose solution containing no test compound was applied in a similar manner. The bait cup was introduced inside the cage prior to admitting 12-25 anesthetized flies. Mortality was assessed after 24 hours.

Test [10] relates to southern corn rootworm (Diabrotica undecimpunctata howardi). In words: Southern corn rootworm (SCRW) soil test. Conditions: soil concentration 2.5, 5, 6.75 or 10 ppm; mortality eight days after infestation. On the procedure: as §1, §3, §4
Test [11] relates to cotton aphid (Aphis gossypii). Kind of test: Cotton aphid systemic test (CA-Sys). Conditions: soil drench 10.0 ppm, aphid control rated three and six days after infestation.
Description: as §2
Cotton aphid—systemic test (CA-Sys): Cotton seeds were placed on top of the soil surface in pots containing moist soil. The test compound solution was applied as a drench to the top of the soil and seeds for a treatment rate equivalent to 10.0 ppm soil concentration. As an untreated control, an aliquot of a water-acetone-DMF-emulsifier solution containing no test compound was applied in a similar manner. The soil surface and seeds were covered with moist soil. The pots were held in the greenhouse for the duration of the bioassay. When the cotyledons of the cotton were expanded (approximately 7 days after planting), the cotton was infested with approximately 25 cotton aphids (mixed population). The plant were rated for aphid control three and six days after infestation.

The test system of test [12] is cotton aphid (Aphis gossypii). In words: Cotton aphid (CA) foliar spray test. To be noted: cotton plants wet to runoff, 100 or 500 ppm; dead aphids counted after three days. On the procedure:
as §1
Buckthorn aphid (BA) or cotton aphid (CA): Adult and nymphal stages of buckthorn or cotton aphid were reared on potted dwarf nasturtium or cotton plants, respectively. Plants infested with 100-150 aphids were wet to runoff with the 100 or 500 ppm test compound formulation. As an untreated control, a water-acetone-DMF-emulsifier solution containing no test compound was also applied to runoff to infested plants. The treated plants were stored for one day for buckthorn aphid and three days for cotton aphid, after which the dead aphids were counted.

For `CCOC(OCC)c1c(S(=O)(=O)C(F)(F)F)c(C#N)nn1-c1c(Cl)cc(C(F)(F)F)cc1Cl` [Compound 19, 3-Cyano-1-(2,6-dichloro-4-trifluoromethylphenyl)-5-diethoxymethyl-4-trifluoromethylsulfonylpyrazole], the TBW result in [1] is “+ (active against 1 or more insects described above up to 100% mortality. This activity is indicated by a “+”)”. For the same compound, in test [2], the CF result is recorded as “+ (active against 1 or more insects described above up to 100% mortality. This activity is indicated by a “+”)”. Besides, the ACR result in test [3] is “+ (active against 1 or more insects described above up to 100% mortality. This activity is indicated by a “+”)”.
For the compound `CC(=O)c1c([S+]([O-])C(F)(F)F)c(C#N)nn1-c1c(Cl)cc(C(F)(F)F)cc1Cl` (stereo not shown) [Compound 10, 5-Acetyl-3-cyano-1-(2,6-dichloro-4-trifluoromethylphenyl)-4-trifluoromethylsulfinylpyrazole], the BCW-Sys result in test [4] is “+ (active against 1 or more insects described above up to 100% mortality. This activity is indicated by a “+”)”. The GA-Sys entry in [5] is given as “+ (active against 1 or more insects described above up to 100% mortality. This activity is indicated by a “+”)”. Moreover, the WCRW entry in test [6] was “+ (active against 1 or more insects described above up to 100% mortality. This activity is indicated by a “+”)”. Further, the TBW result in [1] is on record as “+ (active against 1 or more insects described above up to 100% mortality. This activity is indicated by a “+”)”. Further, the MBB result in test [7] was “+ (active against 1 or more insects described above up to 100% mortality. This activity is indicated by a “+”)”. Further, the BCW entry in test [8] is “+ (active against 1 or more insects described above up to 100% mortality. This activity is indicated by a “+”)”.
As to `N#Cc1nn(-c2c(Cl)cc(C(F)(F)F)cc2Cl)c(C=NN)c1SC(F)(F)F` [Compound 3, 5-{(N-amino)iminomethylidenyl}-3-cyano-1-(2,6-dichloro-4-trifluoromethylphenyl)-4-trifluoromethylthiopyrazole], the HF entry in test [9] was “+ (active against 1 or more insects described above up to 100% mortality. This activity is indicated by a “+”)”. In addition, the SCRW result in test [10] was “+ (active against 1 or more insects described above up to 100% mortality. This activity is indicated by a “+”)”. Besides, the TBW entry in test [1] is given as “+ (active against 1 or more insects described above up to 100% mortality. This activity is indicated by a “+”)”. The BCW entry in test [8] is reported as “+ (active against 1 or more insects described above up to 100% mortality. This activity is indicated by a “+”)”.
Turning to `CCOC(OCC)c1c([S+]([O-])C(F)(F)F)c(C#N)nn1-c1c(Cl)cc(C(F)(F)F)cc1Cl` (stereo not shown) [Compound 20, 3-Cyano-1-(2,6-dichloro-4-trifluoromethylphenyl)-5-diethoxymethyl-4-trifluoromethylsulfinylpyrazole], in [2], the CF entry is given as “+ (active against 1 or more insects described above up to 100% mortality. This activity is indicated by a “+”)”. Moreover, in test [11], the CA-Sys entry is given as “+ (active against 1 or more insects described above up to 100% mortality. This activity is indicated by a “+”)”. Further, in test [3], the ACR entry is “+ (active against 1 or more insects described above up to 100% mortality. This activity is indicated by a “+”)”. In addition, in [12], the CA result was “+ (active against 1 or more insects described above up to 100% mortality. This activity is indicated by a “+”)”.
In the case of `CON=Cc1c(SC(F)(F)F)c(C#N)nn1-c1c(Cl)cc(C(F)(F)F)cc1Cl` [Compound 5, 3-Cyano-1-(2,6-dichloro-4-trifluoromethylphenyl)-5-{(N-methoxy)iminomethylidenyl}-4-trifluoromethylthiopyrazole], the HF entry in test [9] is given as “+ (active against 1 or more insects described above up to 100% mortality. This activity is indicated by a “+”)”. Besides, the WCRW entry in test [6] is “+ (active against 1 or more insects described above up to 100% mortality. This activity is indicated by a “+”)”. For the same compound, the SCRW result in [10] was “+ (active against 1 or more insects described above up to 100% mortality. This activity is indicated by a “+”)”. For the same compound, the CA-Sys result in test [11] is listed as “+ (active against 1 or more insects described above up to 100% mortality. This activity is indicated by a “+”)”. The CA entry in test [12] is listed as “+ (active against 1 or more insects described above up to 100% mortality. This activity is indicated by a “+”)”.
